We go through 23 compounds from patent publication US11787780B2 (CORCEPT THERAPEUTICS INCORPORATED, priority 2020, dated 2023).

A word on the pIC50: it is the IC50 on a negative log10 scale, so that one unit is a factor of ten.

pIC50: −log10 of the molar value.

The test deals with glucocorticoid receptor (GR) recombinant ligand binding domain (LBD) (Homo sapiens (Human), UniProt P04150). Kind of test: GR binding fluorescence polarisation (FP) assay. The conditions noted are these: displacement of fluorescently tagged ligand. Here is the method: Binding of test compounds to the glucocorticoid receptor (GR) is determined using a fluorescence polarisation (FP) assay utilising a recombinant ligand binding domain (LBD) of GR. The test compounds are assessed by their ability to displace a fluorescently tagged ligand and detection of the resulting decrease in fluorescence polarisation.
Chain of glucocorticoid receptor (GR) recombinant ligand binding domain (LBD) (P04150 524-758): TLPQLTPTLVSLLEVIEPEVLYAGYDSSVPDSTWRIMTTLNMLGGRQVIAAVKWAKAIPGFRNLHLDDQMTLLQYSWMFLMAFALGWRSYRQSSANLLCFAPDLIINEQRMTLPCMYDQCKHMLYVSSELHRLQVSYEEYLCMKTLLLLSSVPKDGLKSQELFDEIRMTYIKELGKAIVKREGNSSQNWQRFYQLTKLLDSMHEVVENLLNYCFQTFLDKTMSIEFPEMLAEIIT
As to `CC(C)C[C@@H]1CN(c2ccc3c(cnn3-c3ccc(F)cc3)c2)CCN1S(=O)(=O)c1cnn(C)c1` [Example 42], the pIC50 was 5.64.

As to `Cc1cc2c(cnn2-c2ccc(F)cc2)cc1N1CCC(NS(C)(=O)=O)CC1` [Example 106], the pIC50 was 8.05. On to `CC(=O)N1CCN(c2ccc3c(cnn3-c3ccc(F)cc3)c2)[C@H](C)C1` [Example 97], for which the pIC50 was 5.74.

As for `CCCNS(=O)(=O)N1CCN(c2ccc3c(cnn3-c3ccc(F)cc3)c2)C[C@H]1C` [Example 63], the pIC50 is 6.67.

Regarding `Cc1cc2c(cnn2-c2ccc(F)cc2)cc1N1CC[C@@H](N(C)S(=O)(=O)c2cnn(C)c2)C1` [Example 115], the pIC50 is 7.68.

Turning to `CC(C)Cn1cc(S(=O)(=O)N2CCN(c3ccc4c(cnn4-c4ccc(F)cc4)c3)C[C@H]2C)cn1` [Example 64], the pIC50 was 6.82. In the case of `C[C@@H]1CN(S(C)(=O)=O)[C@@H](C)CN1c1ccc2c(cnn2-c2ccc(F)cc2)c1` [Example 51] it was 6.44; in that of `CCCn1cc(S(=O)(=O)N2CCN(c3ccc4c(cnn4-c4ccc(F)cc4)c3)C[C@H]2C)c(C)n1` [Example 57], 6.60; in that of `CCCn1cc(S(=O)(=O)N2CCN(c3ccc4c(cnn4-c4ccc(F)cc4)n3)CC23CC3)cn1` [Example 72], 5.43. Turning to `CCCn1cc(S(=O)(=O)N2CCN(c3cc4cnn(-c5ccc(F)cc5)c4cc3C)C(=O)C2)cn1` [Example 209, 1-(1-(4-fluorophenyl)-6-methyl-1H-indazol-5-yl)-4-((1-propyl-1H-pyrazol-4-yl)sulfonyl)piperazin-2-one], the pIC50 is 5.41. Consider `CCCn1cc(S(=O)(=O)N2C3CCC2CN(c2cc4cnn(-c5ccc(F)cc5)c4cc2C)C3)cn1` [Example 83], for which the pIC50 is 6.29.

As to `CS(=O)(=O)N1C[C@@H]2C[C@H]1CN2c1ccc2c(cnn2-c2ccc(F)cc2)c1` [Example 47], the pIC50 is 5.85.

With `CC(=O)N1CCN(c2ccc3c(cnn3-c3ccc(F)cc3)c2)C[C@H]1CC(C)C` [Example 99], the pIC50 is 6.05. In the case of `Cc1cc2c(cnn2-c2ccc(F)cc2)cc1N1CCC(N(C)S(C)(=O)=O)CC1` [Example 116] it was 7.14; in that of `CCCn1cc(S(=O)(=O)N2CC=C(c3cc4cnn(-c5ccc(F)cc5)c4cc3C)C[C@H]2C)cn1` [Example 11, (R)-1-(4-fluorophenyl)-6-methyl-5-(2-methyl-1-((1-propyl-1H-pyrazol-4-yl)sulfonyl)-1,2,3,6-tetrahydropyridin-4-yl)-1H-indazole], 6.59; in that of `CCCn1cc(S(=O)(=O)N2CC=C(c3ccc4c(cnn4-c4ccc(F)cc4)c3)CC2)cn1` [Example 137], 6.51.

Turning to `C[C@@H]1CN(C(=O)c2ccccc2)CCN1c1ccc2c(cnn2-c2ccc(F)cc2)c1` [Example 2, (R)-(4-(1-(4-fluorophenyl)-1H-indazol-5-yl)-3-methylpiperazin-1-yl)(phenyl)methanone], the pIC50 is 5.71.

Consider `CCCn1cc(S(=O)(=O)NC2CCN(c3cc4cnn(-c5ccc(F)cc5)c4cc3C)CC2)cn1` [Example 107], for which the negative-log IC50 (pIC50) is 8.52.

In the case of “1-(4-fluorophenyl)-5-(4-(methoxymethyl)-1-((1-propyl-1H-pyrazol-4-yl)sulfonyl)piperidin-4-yl)-1H-indazole [Example 23]”, the pIC50 was 5.89. In the case of `Cc1cc2c(cnn2-c2ccc(F)cc2)cc1N1CCCC(N(C)S(C)(=O)=O)C1` (centres unmarked) [Example 126] it was 6.72; in that of `CCCn1cc(S(=O)(=O)N2CCN(c3cc4cnn(-c5ccc(F)c(F)c5)c4cc3C)C[C@H]2C)cn1` [Example 76], 7.08; in that of `CS(=O)(=O)N1CCC(c2ccc3c(cnn3-c3ccc(F)cc3)c2)CC1` [Example 134], 5.47. With `Cc1cc2c(cnn2-c2ccc(F)cc2)cc1C1(COCc2ccccc2)CCN(S(=O)(=O)c2cnn(C)c2)C1` (centres unmarked) [Example 341, 5-(3-((benzyloxy)methyl)-1-((1-methyl-1H-pyrazol-4-yl)sulfonyl)pyrrolidin-3-yl)-1-(4-fluorophenyl)-6-methyl-1H-indazole], the pIC50 is 6.41.
